Experimental data as given in patent publication US12102685B2, “Immodulator peptides covalently modified with small molecules” (priority 2020, dated 2024).
Marks after values point to notes of the source that are not given here. Peptide text beside a SMILES is read from it.

Assays:
rat scald model = assay: Rat scald model, study effects (Table x7A); assay type: in vivo; settings: burn + IM3N1 4 mg/kg sc once daily for seven days; n=3
[1] = NTA-metal-affinity fluorescence assay, FITC-labeled IM3 (x2B a); assay type: binding; settings: FITC-labeled IM3 1 ug/well
Protocol: (§1) NTA-metal-affinity fluorescence assay was performed using 96-well NTA-metal-coated plates readily available from commercial sources such as Qiagen (Germantown, MD). NTA was charged with ferrous or ferric iron, zinc, copper, calcium, vanadium, ruthenium, cobalt, titanium, manganese or other metals. 400 ng of FITC-labeled immodulator peptide (or biotinylated immodulator peptide complexed to Alexa-488-labeled streptavidin) in PBS buffer was added per plate. After incubation at room temperature for 60 minutes, excess peptide was washed off and peptide was detected by measuring fluorescence (excitation 490 nm, emmission 525 nm) in a fluorometer. • (a) Using FITC-labeled IM3 peptide (1 ug/well) in the fluorescent binding assay: • EDTA-treated control: 2,251±1,186 • Ferrous iron: 170,441±11,264 (p<0.001)* • Copper: 13,644±5566 (p<0.05)* • Calcium: 48,822±11,990 (p<0.01)* • *p values are relative to EDTA-treated control • (b) Competition binding assay to ferrous iron, calcium, copper and zinc-charged NTA-coated plates using FITC-labeled IM3 peptide (0.5 uM) and 8× (4 uM) unlabelled competitor peptides IM3N1, IM3N2 (*all comparisons to PBS control are p<0.01); # fluorescent value of binding to […] was set at 100.

[2] = Alexa488-SA-labelled IM3 binding to metal-charged NTA-coated plate (x2B c)
Protocol: as §1
• (c) Alexa488-SA-labelled immodulator peptide IM3 (400 ng/well) bound to NTA-coated plate charged with the indicated metals: # fluorescent value of binding to ferrous iron was set at 100. *p<0.01 relative to control.
Ferrous iron # (100±2.6*); Control (no metal): 6.4±3.1; Ferric iron: 94.1±6.6*; Calcium: 47.6±3.7*; Vanadium: 53.9±5.5*; Manganese: 54.4±11.2*; Cobalt: 25.4±2.3*; Copper: 58.4±6.4*; Zinc: 71.4±8.3*; Ruthenium: 67.8±8.3*; (d) Alexa488-SA-labelled immodulator peptide IM1, IM2, IM3, IM4, IM5, IM6 (400 ng/well) were bound to NTA-coated plate charged with the indicated metals: # background (no peptide) control set to 1.0;*p<0.05, **p<0.01 vs “no peptide”

NF-kappa-B (NFkB) = assay: THP1-Dual monocyte reporter, NF-kappa-B readout (x4A); assay type: cell-based
Protocol: (§2) Immune modulation functions of immodulator peptides were measured using the monocyte reporter cell line THP1-Dual (Invivogen, San Diego, CA), which provides convenient readouts for STING and NF-kappa-B pathways. Optionally, succinic acid, cytokine and chemokine production were also measured. THP1-Dual cell line was obtained from Invivogen. Cells were grown in a T-75 flask in RPMI Medium containing 20% fetal bovine serum, blasticidin ([…]), zeocin ([…]) and penicillin-streptomycin at 37° C. in a humidified, 5% CO2 incubator. Cells ([…], 8,000 cells/well) were plated in a 96-well plate and incubated overnight at 37 °C in a humidified, 5% CO2 incubator. Next day, […] of compounds were added (quadruplicate wells). After 24 hour incubation with the compound, supernatants were harvested and stored at 4° C. prior to assay.
(§3) Each cell supernatant was assayed in quadruplicate. 20 uL of supernatant was used to measure NF-kappa-B (NFkB) and
(§4) STING activity using reagents QuantiBlu and QuantiLuc respectively, according to the manufacturer's recommendations (Invivogen, San Diego, CA). Succinic acid was measured by using a kit from Megazyme Inc (Cambridge, MA). Control value of activity was set to 100 in each assay. […] PAM3C=25 ng/ml PAM3CSK4 (TLR1/2 inducer); Poly(I:C)=10 ug/ml (TLR3 inducer); PAM2C=25 ng/ml PAM2CSK4 (TLR2/6 inducer); KIN14=4 uM KIN-1400 (RIG-I inducer); cytB=1 uM cytosporone B (Nur77 inducer); C-178=1 uM STING inhibitor; NFkBi=50 ug/ml NFkB inhibitor peptide; SB2021=10 uM p38MAPK inhibitor; *p<0.05, **p<0.01 vs IM3 control; #p<0.01 vs “no inducer” control; SUCC=succinic acid; nd=not done; Peptide was added to cells at 400 nM.
(§5) Peptides were added to cells at 400 nM. […]

STING = assay: THP1-Dual monocyte reporter, STING readout (x4A); assay type: cell-based
Protocol: as §2, §3, §4, §5

[3] = IM3 / FITC-PI(4,5)P2 binding on metal-charged NTA plates (x9C)
Protocol: NTA-coated 96-well plates were charged with either 500 uM zinc chloride or 500 uM ferric chloride and washed. Immodulator peptide IM3 (100 ng/well) and FITC-PI(4,5)P2 (50 ng/well) were added, with or without 2 ug/well cold PPI, and incubated at room temperature for 60 minutes. The plate was washed and counted in a fluorometer.

[4] = peptide 400 nM + KIN1400 (= 100)
[5] = peptide 400 nM + KIN1400 + C-178 1 uM
[6] = peptide 400 nM + KIN1400 + NFkBi 50 ug/ml
[7] = peptide 400 nM + KIN1400 + SB2021 10 uM
[8] = peptide 400 nM + KIN1400 + cytB 1 uM
[9] = peptide 400 nM + PAM2C + C-178 1 uM
[10] = peptide 400 nM + PAM2C + NFkBi 50 ug/ml
[11] = peptide 400 nM + PAM2C + SB2021 10 uM
[12] = peptide 400 nM + PAM2C + cytB 1 uM
[13] = peptide 400 nM + PAM3C + C-178 1 uM
[14] = peptide 400 nM + PAM3C + NFkBi 50 ug/ml
[15] = peptide 400 nM + PAM3C + SB2021 10 uM
[16] = peptide 400 nM + PAM3C + cytB 1 uM
[17] = peptide 400 nM + PAM3C, control = 100
[18] = peptide 400 nM, no inducer, control = 100

RGVTEDYLRLETLVQKVVSKGFYKKKQCRPSKGRKRGFCW [IM3N1]
Glycemic Control (GTT AUC) (rat scald model): 69.0 ± 18.1 mg·dL·h | Kidney Function (eGFR, calculated) (rat scald model): 1.29 ± 0.32 | Lean Body Mass (DEXA) (rat scald model): 328.5 ± 5.1 | Urinary 8-isoprostate (rat scald model): 4.53 ± 1.21 ng/pg cystatin

N=C(N)NCCC[C@H](NC(=O)CNC(=O)[C@H](CCCCN)NC(=O)[C@H](CO)NC(=O)[C@@H]1CCCN1C(=O)[C@H](CCCNC(=N)N)NC(=O)[C@H](CS)NC(=O)[C@H](CCC(N)=O)NC(=O)[C@H](CCCCN)NC(=O)[C@H](CCCCN)NC(=O)[C@H](CCCCN)NC(=O)[C@H](Cc1ccc(O)cc1)NC(=O)[C@H](Cc1ccccc1)NC(=O)CNC(=O)[C@H](CCCCN)NC(=O)[C@@H](N)CCCCN)C(=O)N[C@@H](CCCCN)C(=O)N[C@@H](CCCNC(=N)N)C(=O)NCC(=O)N[C@@H](Cc1ccccc1)C(=O)N[C@@H](CS)C(=O)N[C@@H](Cc1c[nH]c2ccccc12)C(=O)O [IM3] (H-KKGFYKKKQCRPSKGRKRGFCW-OH; N-terminus and C-terminus assumed)
fluorescence ([1]; Calcium): 48,822±11,990 | fluorescence ([1]; Copper): 13,644±5566 | fluorescence ([1]; EDTA-treated control): 2,251±1,186 | fluorescence ([1]; Ferrous iron): 170,441±11,264 | fluorescence ([2]; Calcium, ferrous iron = 100): 47.6±3.7 | fluorescence ([2]; Cobalt, ferrous iron = 100): 25.4±2.3 | fluorescence ([2]; Control (no metal), ferrous iron = 100): 6.4±3.1 | fluorescence ([2]; Copper, ferrous iron = 100): 58.4±6.4 | fluorescence ([2]; Ferric iron, ferrous iron = 100): 94.1±6.6 | fluorescence ([2]; Ferrous iron, set at 100, 400 ng/well): 100±2.6 | fluorescence ([2]; Manganese, ferrous iron = 100): 54.4±11.2 | fluorescence ([2]; Ruthenium, ferrous iron = 100): 67.8±8.3 | fluorescence ([2]; Vanadium, ferrous iron = 100): 53.9±5.5 | fluorescence ([2]; Zinc, ferrous iron = 100): 71.4±8.3 | NFkB (NF-kappa-B (NFkB); [4]): 100 | NFkB (NF-kappa-B (NFkB); [5]): 98.1 | NFkB (NF-kappa-B (NFkB); [6]): 104.4 | NFkB (NF-kappa-B (NFkB); [7]): 131.3** | NFkB (NF-kappa-B (NFkB); [8]): 103.5 | NFkB (NF-kappa-B (NFkB); peptide 400 nM + PAM2C (= 100)): 100 | NFkB (NF-kappa-B (NFkB); [9]): 108.0** | NFkB (NF-kappa-B (NFkB); [10]): 118.7* | NFkB (NF-kappa-B (NFkB); [11]): 65.4** | NFkB (NF-kappa-B (NFkB); [12]): 99.8 | NFkB (NF-kappa-B (NFkB); [13]): 561 | NFkB (NF-kappa-B (NFkB); [14]): 458** | NFkB (NF-kappa-B (NFkB); [15]): 296** | NFkB (NF-kappa-B (NFkB); [16]): 576 | NFkB (NF-kappa-B (NFkB); [17]): 575 | NFkB (NF-kappa-B (NFkB); [18]): 94** | STING (STING; [4]): 100 | STING (STING; [5]): 81.1** | STING (STING; [6]): 105.0 | STING (STING; [7]): 75.6** | STING (STING; [8]): 87.5* | STING (STING; peptide 400 nM + PAM2C (= 100)): 100 | STING (STING; [9]): 62.0** | STING (STING; [10]): 119.1* | STING (STING; [11]): 18.9** | STING (STING; [12]): 96.5 | STING (STING; [13]): 566** | STING (STING; [14]): 1294** | STING (STING; [15]): 274** | STING (STING; [16]): 1318** | STING (STING; [17]): 1474 | STING (STING; [18]): 91** | fluorescence, FITC-PI(4,5)P2 ([3]; Ferric iron, cold PI(3)P1 2 ug/well): 78.5 ± 5.8 | fluorescence, FITC-PI(4,5)P2 ([3]; Ferric iron, cold PI(3,5)P2 2 ug/well): 100.0 ± 3.2 | fluorescence, FITC-PI(4,5)P2 ([3]; Ferric iron, no cold PPI): 80.1 ± 1.8 | fluorescence, FITC-PI(4,5)P2 ([3]; No metal, no cold PPI, IM3 100 ng/well): 0.0 ± 0.2 | fluorescence, FITC-PI(4,5)P2 ([3]; Zinc, no cold PPI): 2.2 ± 0.3
